The values below come from patent US8802710B2, “Metronidazole esters for treating rosacea” (Galderma Research & Development, priority 2010, dated 2014).

Series [1] concerns oedema induced by TPA (phorbol 12-myristate-13-acetate) on mouse ear. As to the kind of experiment: Model of acute inflammation on mouse ear: oedema induced by TPA. It is filed as in vivo. Particulars: for inhibition of the TPA-induced inflammation: concentration of 1%, TPA test in mice; for IC50 (concentration at which 50% inhibition of the oedema induced by TPA alone is observed): applied with 0.01% TPA in ethanol, oedema measured 6 hours after application. How it is done: The anti-inflammatory activities of the compound of formula (I) in racemic form, of metronidazole and of flurbiprofen (racemic) were measured in an in vivo test performed on a mouse model.
The model used is the model of mouse ear inflammation induced by a single application of TPA (phorbol 12-myristate-13-acetate). Female Balb/c ByJlco mice are used.
The oedema is induced by applying to the ear 20 μl of 0.01% TPA dissolved in ethanol.
The racemic compound of formula (I) is dissolved, at the desired concentration, in the 0.01% TPA solution and thus applied to a group of mice at the same time as the TPA.
Similarly, flurbiprofen (racemic) is dissolved, at the desired concentration, in the 0.01% TPA solution and thus applied to another group of mice at the same time as the TPA.
Finally, metronidazole is dissolved, at the desired concentration, in the 0.01% TPA solution and thus applied to another group of mice at the same time as the TPA.
The oedema is evaluated, 6 hours after application, by measuring the thickness of the ear using an Oditest® micrometer.
The TPA-induced oedema is evaluated relative to the ethanol vehicle group. The inhibition, with the racemic compound of formula (I), with flurbiprofen (racemic) or with metronidazole, of the oedema induced by TPA alone is expressed by the IC50.
The IC50 corresponds to the concentration (or dose) at which 50% inhibition of the oedema induced by TPA alone is observed.

Series [2] deals with human neonatal keratinocytes. As to the kind of experiment: Stability on keratinocyte cultures. It is filed as in vitro ADME. The settings on record: human keratinocyte cultures. The method, then: (§1) The stability on keratinocyte cultures is evaluated using human neonatal keratinocytes (Cell'N Tech) cultured in a 75 cm^2 flask and detached at 90-100% of confluence with vegetable trypsin (trypLE GIBCO). The compound of formula (I) was tested at 2 μM in the medium CNT-057 (Cell'N Tech) supplemented with 0.1% pluronic acid in 24-well plates. The final DMSO concentration is 0.1%. Degradation kinetics are performed with a Tecan EVO robot over 24 hours. The samples taken are then assayed by LC/MS/MS (Micromass) in comparison with a calibration range of the test product, prepared under the same conditions as the samples (⅓ culture medium and ⅔ methanol). The chromatographic conditions are optimized for each product. An assay of the appearance of metronidazole is also performed using these same samples.

Series [3] has as its system oedema induced by arachidonic acid (AA) on mouse ear. Briefly: Model of acute inflammation on mouse ear: arachidonic acid-induced oedema. It is filed as in vivo. The settings on record: for IC50 (concentration at which 50% inhibition of the oedema induced by AA alone is observed): topical on mouse ear, oedema measured 1 hour after application, % weight per volume of solution. The method, then:
The anti-inflammatory activities of the compound of formula (I) in racemic form, of the S enantiomer of the compound of formula (I), of metronidazole and of flurbiprofen were measured in an in vivo test performed on a mouse model. This model consists in inducing inflammation of the mouse ear with a single application of arachidonic acid (AA). Female Balb/c ByJlco mice are used. The oedema is induced by applying to the mouse's ear 20 μL of AA dissolved to 4% in a 1/1 THF/methanol mixture. The anti-inflammatory activities of the S enantiomer of the compound of formula (I), of the compound of formula (I) in racemic form, of metronidazole and of flurbiprofen were evaluated after topical application onto the inner face of the mouse's ear of 20 μL of a solution of the compound in a 1/1 THF/methanol mixture containing 4% AA.
Solutions containing 0.01%; 0.03%; 0.1%; 0.3%; 1% and 2% of the test compound are thus prepared. The percentages correspond to the weight of the test compound per volume of solution. The oedema is evaluated, 1 hour after application, by measuring the thickness of the ear using an Oditest® micrometer. The oedema induced by AA alone is evaluated, 1 hour after application, by measuring the thickness of the ear using an Oditest® micrometer. It is evaluated relative to a group comprising only the vehicle (1/1 THF/methanol).
The inhibition of the oedema is expressed as a percentage of reduction, by the test molecule and at the test concentration, of the oedema induced by AA alone.
The IC50 corresponds to the concentration (or dose) at which 50% inhibition of the oedema induced by AA alone is observed.

A short description of series [4]: Stability on keratinocyte cultures. The settings on record: 2 μM, human neonatal keratinocyte culture, kinetics over 24 hours, LC/MS/MS; read-out: half-life time (t1/2) (converted). It is filed as in vitro ADME, human. How it is done:
as §1

Each structure is given as a SMILES string.

Consider `Cc1ncc([N+](=O)[O-])n1CCOC(=O)[C@H](C)c1ccc(-c2ccccc2)c(F)c1` [2-(2-methyl-5-nitroimidazol-1-yl)ethyl (R)-2-(2-fluorobiphenyl-4-yl)propionate], for which the “inhibition of the TPA-induced inflammation” value in series [1] is 85%.
As for `COc1ccc2c(c1)c(CC(=O)OCCn1c([N+](=O)[O-])cnc1C)c(C)n2C(=O)c1ccc(Cl)cc1` [metronidazole ester with indomethacin], the “hydrolysis / stability of the ester on keratinocyte cultures” value (“hydrolysis / stability of the ester” for short) in series [2] was “do not become hydrolysed”.
For the compound `CC(C(=O)O)c1ccc(-c2ccccc2)c(F)c1` (racemic) [flurbiprofen (racemic), flurbiprofen], the “IC50 (concentration at which 50% inhibition of the oedema induced by TPA alone is observed)” value in series [1] is recorded as 0.22%. For the same compound, the “inhibition of the oedema induced by AA alone” value in series [3] (dose of 0.1%, topical, 1 hour after application) is 60%. Also, in series [3], the “IC50 (concentration at which 50% inhibition of the oedema induced by AA alone is observed)” value is 0.037%.
As to `Cc1ncc([N+](=O)[O-])n1CCOC(=O)c1cc(-c2ccc(F)cc2F)ccc1O` [metronidazole ester with diflunisal], the “hydrolysis / stability of the ester” value in series [2] is “do not become hydrolysed”.
As for `C[C@H](C(=O)O)c1ccc(-c2ccccc2)c(F)c1` [(S)-flurbiprofen], in series [1], the “inhibition of the TPA-induced inflammation” value is 70%.
Turning to `Cc1ncc([N+](=O)[O-])n1CCOC(=O)C(C)c1ccc(-c2ccccc2)c(F)c1` (racemic) [2-(2-methyl-5-nitroimidazol-1-yl)ethyl 2-(2-fluorobiphenyl-4-yl)propionate], the “IC50 (concentration at which 50% inhibition of the oedema induced by TPA alone is observed)” value in series [1] is reported as 0.22%. Also, in series [4], the half-life at 2 μM is 6 h. Also, the “hydrolysis / stability of the ester” value in series [2] was “specifically cleaved in keratinocytes”. Besides, in series [3] (dose of 1%, AA-induced mouse ear oedema, result in words), the “anti-inflammatory activity compared with flurbiprofen” value is reported as “equivalent to that of flurbiprofen (racemic) at the 0.1% dose”.
`Cc1ncc([N+](=O)[O-])n1CCO` [metronidazole]: the anti-inflammatory activity entry in series [1] (TPA-induced mouse ear oedema, result in words) was “no anti-inflammatory activity”; in series [3] (AA-induced mouse ear oedema, result in words), “no anti-inflammatory activity”.
With `C[C@@H](C(=O)O)c1ccc(-c2ccccc2)c(F)c1` [(R)-flurbiprofen], the “inhibition of the TPA-induced inflammation” value in series [1] is on record as 80%.
For `Cc1ncc([N+](=O)[O-])n1CCOC(=O)[C@@H](C)c1ccc(-c2ccccc2)c(F)c1` [2-(2-methyl-5-nitroimidazol-1-yl)ethyl (S)-2-(2-fluorobiphenyl-4-yl)propionate], the “inhibition of the TPA-induced inflammation” value in series [1] came out at 95%. In addition, the half-life at 2 μM in series [4] is 18 h. Besides, in series [3], the “IC50 (concentration at which 50% inhibition of the oedema induced by AA alone is observed)” value is 1%.
With `Cc1ncc([N+](=O)[O-])n1CCOC(=O)C1CCn2c(C(=O)c3ccccc3)ccc21` (stereo not shown) [metronidazole ester with ketorolac], the “hydrolysis / stability of the ester” value in series [2] is recorded as “do not become hydrolysed”.
Same read-out and setting: with `Cc1ncc([N+](=O)[O-])n1CCOC(=O)c1cccnc1Nc1cccc(C(F)(F)F)c1` [metronidazole ester with niflumic acid] the entry was “do not become hydrolysed”.
